Some test systems named below: SK-MEL-28 melanoma; IGROV1 ovarian; SK-MEL-2 melanoma; HOP-92 NSCLC; SN12C renal; U251 CNS; A549 NSCLC; UACC-62 melanoma; K-562 leukemia.
Assay in all cases: NCI anticancer screen, dose series, 48 h

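Briefly, cells in 96-well plates were exposed to five compound concentrations for 48 h, and endpoints were estimated by linear interpolation. GI50 is the concentration that inhibits growth by half. TGI: concentration producing complete growth inhibition.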 Where only a bound is given, the exact number is not on record here.

Regarding `Cc1ccc(C)c(N2C/C(=N\NC(=O)CC#N)C(c3nc4ccccc4s3)C(=O)C2=O)c1` (stereo not drawn), the TGI in the assay on SK-MEL-28 melanoma, with IGROV1 ovarian, with SK-MEL-2 melanoma, with HOP-92 NSCLC, in the assay with SN12C renal and with U251 CNS was above 100 µM in each case. The TGI in the assay with A549 NSCLC and with UACC-62 melanoma was above 100 µM in each case.
Consider `CCN1c2ccccc2-c2c3c1cc(C)cc3c1ccccc1[n+]2CC`, for which the TGI in the assay with SK-MEL-28 melanoma came out at 2.46 µM; in the assay on SK-MEL-2 melanoma it was 4.29 µM; in the assay with SN12C renal, 3.35 µM; in the assay on U251 CNS, 2.68 µM; with A549 NSCLC, 13.8 µM; with UACC-62 melanoma it was 2.23 µM. In addition, the TGI in the assay on K-562 leukemia turned out to be 2.12 µM.
As for `Cc1[nH]c2ccccc2c1C1Cc2ccccc2N1C(=O)C#Cc1ccc([N+](=O)[O-])cc1` (stereo not drawn), the TGI in the assay on SK-MEL-28 melanoma, in the assay with IGROV1 ovarian, with SN12C renal, in the assay on U251 CNS, in the assay on A549 NSCLC and in the assay on UACC-62 melanoma was above 100 µM in each case. In addition, in the assay on K-562 leukemia, the TGI was above 100 µM.
For `COc1cc(/C=C2\[C@H]3c4c(c(OC)c(C)c(OC)c4OC)CC(C(=O)N2Cc2ccccc2)N3C)c(OC)c(C)c1OC`, the TGI is 64.2 µM with SK-MEL-28 melanoma; 51.6 µM in the assay on IGROV1 ovarian; 49.9 µM with HOP-92 NSCLC; 33.1 µM with SN12C renal; 34.7 µM in the assay on U251 CNS; above 100 µM in the assay on A549 NSCLC. Also, the TGI in the assay on UACC-62 melanoma was found to be 30.4 µM; with K-562 leukemia, 62.1 µM.
With `CC(C(=O)c1ccc(Cl)cc1)/C(=N/NC(=O)NN)C(=O)Nc1cccc(C(F)(F)F)c1` (stereo not drawn), the TGI in the assay with SK-MEL-28 melanoma, with IGROV1 ovarian, in the assay on SK-MEL-2 melanoma, in the assay with SN12C renal, in the assay on U251 CNS and in the assay with A549 NSCLC was above 100 µM in each case. Further, the TGI in the assay with UACC-62 melanoma and in the assay with K-562 leukemia was above 100 µM in each case.
`COc1c(C)n(CCO)ccc1=O`: the TGI in the assay on SK-MEL-28 melanoma, in the assay on SK-MEL-2 melanoma, with HOP-92 NSCLC, with SN12C renal, in the assay on U251 CNS and in the assay on A549 NSCLC was above 100 µM each time. For the same molecule, the TGI in the assay with UACC-62 melanoma and with K-562 leukemia was above 100 µM throughout.
Regarding `CCC1CN2CCc3cc(OC)c(OC)cc3C2CC1CC1c2cc(OC)c(OC)cc2CCN1C(=O)C1CCCN1` (stereo not drawn), the TGI with SK-MEL-28 melanoma was 50.9 µM; with IGROV1 ovarian, 71.7 µM; in the assay with SK-MEL-2 melanoma, 68.7 µM; in the assay with HOP-92 NSCLC, above 100 µM; in the assay on SN12C renal, above 100 µM; in the assay with U251 CNS, 69.4 µM. The values for the TGI in the assay with A549 NSCLC and in the assay with K-562 leukemia were 78.1 µM and 51.4 µM, respectively.
As for `CCOC(=O)NC(=O)c1cn(C(CC)COC(=O)NCCCCCCNC(=O)OCC(CC)n2cc(C(=O)NC(=O)OCC)c(=O)[nH]c2=O)c(=O)[nH]c1=O` (stereo not drawn), the TGI in the assay on SK-MEL-28 melanoma, with IGROV1 ovarian, in the assay with SK-MEL-2 melanoma, in the assay with SN12C renal, in the assay with U251 CNS and in the assay on A549 NSCLC was above 100 µM throughout. Besides, the TGI in the assay with UACC-62 melanoma and in the assay with K-562 leukemia was above 100 µM in each case.
On to `Nc1c(-c2ccccc2-c2c(N)[n+]([O-])c3ccccc3[n+]2[O-])[n+]([O-])c2ccccc2[n+]1[O-]`, for which the TGI in the assay with SK-MEL-28 melanoma, with SK-MEL-2 melanoma, in the assay on HOP-92 NSCLC, in the assay with SN12C renal, with U251 CNS and in the assay with A549 NSCLC was above 100 µM in each case. Also, the TGI is 26.5 µM with UACC-62 melanoma and above 71.8 µM in the assay with K-562 leukemia.
Regarding `CC1(C)CN=C(NN=C(/C=C/c2ccc(C(F)(F)F)cc2)/C=C/c2ccc(C(F)(F)F)cc2)NC1`, the GI50 in the assay with SK-MEL-28 melanoma is 1.64 µM; in the assay on IGROV1 ovarian it was 1.44 µM; in the assay on HOP-92 NSCLC, 1.1 µM; in the assay with SN12C renal it was 1.46 µM; in the assay with U251 CNS it was 1.2 µM; in the assay with A549 NSCLC, 1.36 µM. Further, in the assay with UACC-62 melanoma, the GI50 was 1.72 µM. The TGI with SK-MEL-28 melanoma came to 3.25 µM; in the assay on IGROV1 ovarian, 2.88 µM; in the assay with HOP-92 NSCLC, 2.54 µM; in the assay on SN12C renal, 3.33 µM; in the assay with U251 CNS, 2.47 µM; with A549 NSCLC it was 2.91 µM. Moreover, in the assay on UACC-62 melanoma, the TGI is 3.31 µM.
Take `CC1=C(C#N)C(=O)CC(c2ccc(Cl)cc2)N(C)N1` (stereo not drawn): the TGI in the assay on SK-MEL-28 melanoma, in the assay on SK-MEL-2 melanoma, in the assay with HOP-92 NSCLC, in the assay on SN12C renal, with U251 CNS and in the assay with A549 NSCLC was above 100 µM throughout.
Take `CC(=O)N1CCN(c2ccc(OCC3COC(Cn4ccnc4)(c4ccc(Cl)cc4Cl)O3)cc2)CC1` (stereo not drawn): the TGI in the assay with SK-MEL-28 melanoma is above 100 µM; in the assay on IGROV1 ovarian, above 100 µM; with SK-MEL-2 melanoma, 39.1 µM; in the assay with HOP-92 NSCLC it was above 100 µM; in the assay on SN12C renal it was above 100 µM; in the assay on A549 NSCLC, above 100 µM. Besides, the TGI in the assay on UACC-62 melanoma was 38 µM; in the assay with K-562 leukemia it was above 100 µM.

For the origin of these results see PubChem BioAssay (NCI).
